# Reference: US5110976A, “Insecticidal composition comprising more than one active ingredient” (priority 1985, dated 1992)
# Entries after “also recorded” stand apart in the source; their conditions may differ.
# Legend:
# L. decemlineata [1] = assay: 5 EC formulations sprayed on glass plates (Table 20); assay type: in vivo, imagos; conditions: 5 EC formulation, 48 hours
# Method: (§1) The 5 EC formulations prepared according to Example 42 are diluted 50x, 100x, 200x, 400x, 800x and 1600x with water and 0.5 ml doses are sprayed onto glass plates. After drying 10 L. decemlineata imagos are placed on each glass plate and the insects are covered with Petri-dishes. The tests are carried out by using 6 doses and 3 parallels for each dose. The killed insects are counted after 48 hours.
# Acanthoscelides obtectus [2] = assay: 5 EC formulations sprayed on glass plates (Table 21); assay type: in vivo, bean weevil (Acanthoscelides obtectus), imagos; conditions: 5 EC formulation, 24 hours
# Method: as §1
# Glass plates are sprayed with 5 EC formulations prepared according to Example 42 in an analogous manner to Example 52. After drying 10 bean weevil (Acanthoscelides obtectus) imagos are placed on each plate and the insects are covered with Petri-dishes. The killed insects are counted after 24 hours. The test is carried out with 6 doses by using 3 parallels for each dose.
# Aphidinus matricariae = assay: Residual contact test on adults (Table 25); assay type: in vivo, adult females
# Method: Residual contact test on adults of Aphidinus matricariae. Adults of A. matricariae are exposed to residues of the active ingredients freshly applied on glass plates forming cages, then the survivors are counted.
# Treatment: test product and control treated with water.
# Replicates: at least 3. Plot size (net): 1 cage.
# Parasites of known age (24 hours) are used. […]
# 10 females of A. matricariae are introduced into each cage and supplied with honey as food. The number of females surviving exposure is determined after 1, 5 and 24 hours, in independent runs. Total number of survivors is calculate for each cage.
# T. confusum = assay: Topical LD50 (Table 3); assay type: in vivo, 1-2 weeks' old imagos
# Method: (§2) In Table 3 the LD50 values of the Ig and Ii isomers and those of the Ib isomer-pair are disclosed. The data are topically measured.
# (§3) The active ingredients are dissolved in 2-ethoxyethanol (cellosolve) and 0.3 μl droplets of the solutions are applied onto the dorsal cuticulum of 3-5 days' old female house flies. 10 animals are used and 2 parallels are carried out for each dose. The tests are carried out for 5 dose levels between activity limits of 0% and 100%. After treatment the flies are placed into glass vials. Mortality is determined after 24 hours. Data are transformed to log10 dosage and probit mortality. LD50 and confidence interval values are calculated by linear regression analysis of the log-probit data. The expected values required for the calculation of synergism are obtained by means of harmonic average. The synergistic factor is the quotient of the expected and measured values.
# The active ingredients are dissolved in 2-ethoxyethanol and 0.3 μl droplets of the solutions are applied onto the abdominal side of 1-2 weeks' old imagos. Treatment is carried out with 2 parallels and 20 animals for each dose by using 5 dose levels in the range between activity limits of 0% and 100%. Evaluation and determination of LD50 values and synergistic factors are carried out as described in Example 21.
# Musca domestica = assay: Topical LD50 (Table 3); assay type: in vivo, house fly (Musca domestica), 3-5 days' old females
# Method: as §2, §3
# A. matricariae = assay: Direct contact test of pupae (Table 5); assay type: in vivo
# Method: Mature pupae of A. matricariae on paprika leaves in Petri dishes are exposed to a direct spray of the active ingredients.
# Two or three days before emergence paprika leaves with parasitized pupae are used. The leaves are laid on filter paper in a plastic Petri dish The filter paper is moistened.
# Application of treatment: See Example 23.
# The pieces of leaf are transferred after treatment to clean Petri dish bottoms The trays are stored in a clinic chamber at 20° C. temperature, 70% relative humidity and a light-dark cycle of […]. Surviving pupae hatch after 2-3 days. The numbers of hatched and dead pupae are counted.
# [3] = test system: Leptinotarsa decemlineata; assay: Topical test on potato beetle (Table 6); assay type: in vivo, imagos; conditions: 24 h
# Method: The active ingredients are dissolved in 2-ethoxyethanol and […] of the solutions are applied onto the abdominal sterna of potato beetle (Leptinotarsa decemlineata) imagos. The treatments are carried out by using two parallels and 10 insects for each dose. […]
# Hyphantria cunea = assay: Topical test on fall webworm (Table 8); assay type: in vivo, L7-L8 larvae; conditions: 24 h
# Method: The active ingredients are dissolved in 2-ethoxyethanol and the solutions are applied in the form of 0.2 μl droplets onto the back of fall webworm (Hyphantria cunea) of L7 -L8 larvae stage. The treated worms are placed on strawberry leaves in Petri-dishes. The test is carried out by using 5 doses; 2 parallels and 10 insects for each dose.
# L. decemlineata [4] = assay: 5 EC formulation sprayed on glass plates (Table 9); assay type: in vivo, Colorado beetle (L. decemlineata), imagos; conditions: 48 hours
# Method: (§4) From a 5 EC formulation according to Example 17 50-, 100-, 200-, 400-, 800- and 1600-fold diluted emulsions are prepared by diluting with water. 0.5 ml of the emulsions are sprayed onto glass plates whereupon after drying 10 Colorado beetles (L. decemlineata) imagos are placed on each glass plate and the insects are covered. The tests are carried out with 6 doses by carrying out 3 parallels for each dose. The killed insects are counted after 48 hours and the percental mortality rate is calculated.
# Acanthoscelides obtectus [5] = assay: 5 EC formulation, insecticidal effect on bean weevil (Table 10); assay type: in vivo, bean weevil (Acanthoscelides obtectus), imagos; conditions: 24 hours
# Method: as §4
# The insecticidal effect is tested on been weevil (Acanthoscelides obtectus) imagos. The killed insects are counted after 24 hours and the percental mortality rate is calculated.
# [6] = test system: useful entomophages and parasites; assay: Damage to useful entomophages and parasites; conditions: in vivo
# Repellant effect = conditions: in vivo
# [7] = harmonic average of the single isomers
# [8] = quotient of expected and measured LD50
smiles,measurement,setting,value
CC1(C)C(C=C(Cl)Cl)C1C(=O)OC(C#N)c1cccc(Oc2ccccc2)c1 (centres unmarked) [Ia:Ib = 4:6],Mortality %,"L. decemlineata [1]; dilution 50x, 2880 min",93%
same,Mortality %,"L. decemlineata [1]; dilution 100x, 2880 min",80%
same,Mortality %,"L. decemlineata [1]; dilution 200x, 2880 min",73%
same,Mortality %,"L. decemlineata [1]; dilution 400x, 2880 min",53%
same,Mortality %,"L. decemlineata [1]; dilution 800x, 2880 min",33%
same,Mortality %,L. decemlineata [1]; dilution 1600x,0%
same,Mortality %,"Acanthoscelides obtectus [2]; dilution 50x, 1440 min",70%
same,Mortality %,"Acanthoscelides obtectus [2]; dilution 100x, 1440 min",53%
same,Mortality %,"Acanthoscelides obtectus [2]; dilution 200x, 1440 min",37%
same,Mortality %,"Acanthoscelides obtectus [2]; dilution 400x, 1440 min",30%
same,Mortality %,"Acanthoscelides obtectus [2]; dilution 800x, 1440 min",17%
same,Mortality %,"Acanthoscelides obtectus [2]; dilution 1600x, 1440 min",10%
same,Mortality %,"Aphidinus matricariae; 1 ppm, 1h",50%
same,Mortality %,"Aphidinus matricariae; 1 ppm, 5h",90%
same,Mortality %,"Aphidinus matricariae; 1 ppm, 24h",63%
same,Mortality %,"Aphidinus matricariae; 5 ppm, 1h",100%
CC1(C)[C@H](C=C(Cl)Cl)[C@H]1C(=O)O[C@H](C#N)c1cccc(Oc2ccccc2)c1 (relative stereo) [Ib],LD50 expected,T. confusum; [7],139.3 ng/insect
same,synerg. factor,T. confusum; [8],2.68
same,LD50 measured,"T. confusum; topical, abdominal side",51.9 ng/insect
same,LD50 expected,Musca domestica; [7],24.5 ng/insect
same,synerg. factor,Musca domestica; [8],1.92
same,LD50 measured,"Musca domestica; topical, dorsal cuticulum, 24 hours",12.8 ng/insect
same,Mortality %,A. matricariae; 1 ppm,0%
same,Mortality %,A. matricariae; 5 ppm,0%
same,Mortality %,A. matricariae; 10 ppm,0%
same,Mortality %,A. matricariae; 30 ppm,61.0%
same,mortality at 0.05 µg/insect,[3]; 0.05 μg/insect,0%
same,mortality at 0.1 µg/insect,[3]; 0.10 μg/insect,25%
same,mortality at 0.2 µg/insect,[3]; 0.20 μg/insect,75%
same,mortality at 0.4 µg/insect,[3]; 0.40 μg/insect,85%
same,mortality at 0.023 µg/larva,Hyphantria cunea; 0.023 μg/larvae,10%
same,mortality at 0.047 µg/larva,Hyphantria cunea; 0.047 μg/larvae,15%
same,mortality at 0.094 µg/larva,Hyphantria cunea; 0.094 μg/larvae,30%
same,mortality at 0.188 µg/larva,Hyphantria cunea; 0.188 μg/larvae,70%
same,mortality at 0.375 µg/larva,Hyphantria cunea; 0.375 μg/larvae,80%
same,Mortality %,L. decemlineata [4]; dilution 50x,100%
same,Mortality %,L. decemlineata [4]; dilution 100x,87%
same,Mortality %,L. decemlineata [4]; dilution 200x,57%
same,Mortality %,L. decemlineata [4]; dilution 400x,37%
same,Mortality %,L. decemlineata [4]; dilution 800x,13%
same,Mortality %,L. decemlineata [4]; dilution 1600x,0%
same,Mortality %,Acanthoscelides obtectus [5]; dilution 50x,67%
same,Mortality %,Acanthoscelides obtectus [5]; dilution 100x,53%
same,Mortality %,Acanthoscelides obtectus [5]; dilution 200x,37%
same,Mortality %,Acanthoscelides obtectus [5]; dilution 400x,20%
same,Mortality %,Acanthoscelides obtectus [5]; dilution 800x,10%
same,Mortality %,Acanthoscelides obtectus [5]; dilution 1600x,3%
same,damage / toxicity to useful entomophages and parasites,[6],does not damage useful entomophages and parasites; also recorded: less toxic on parasites than the isomer-pair Ia
same,repellant effect,Repellant effect,outstandingly good
CC1(C)[C@H](C(=O)O[C@H](C#N)c2cccc(Oc3ccccc3)c2)[C@@H]1C=C(Cl)Cl (relative stereo) [Ia],Mortality %,L. decemlineata [1]; dilution 50x,97%
same,Mortality %,L. decemlineata [1]; dilution 100x,87%
same,Mortality %,L. decemlineata [1]; dilution 200x,63%
same,Mortality %,L. decemlineata [1]; dilution 400x,53%
same,Mortality %,L. decemlineata [1]; dilution 800x,27%
same,Mortality %,L. decemlineata [1]; dilution 1600x,0%
same,Mortality %,Acanthoscelides obtectus [2]; dilution 50x,70%
same,Mortality %,Acanthoscelides obtectus [2]; dilution 100x,50%
same,Mortality %,Acanthoscelides obtectus [2]; dilution 200x,33%
same,Mortality %,Acanthoscelides obtectus [2]; dilution 400x,27%
same,Mortality %,Acanthoscelides obtectus [2]; dilution 800x,13%
same,Mortality %,Acanthoscelides obtectus [2]; dilution 1600x,0%
same,Mortality %,"Aphidinus matricariae; 1 ppm, 1h",100%
same,Mortality %,"Aphidinus matricariae; 1 ppm, 5h",100%
same,Mortality %,"Aphidinus matricariae; 1 ppm, 24h",96%
same,Mortality %,"Aphidinus matricariae; 5 ppm, 1h",100%
